The values below come from patent publication US20160184459A1, “CANCER CELL SPECIFIC IMAGING PROBES AND METHODS OF USE” (THE RESEARCH FOUNDATION FOR THE STATE UNIVERSITY OF NEW YORK, priority 2013, published 2016).

Data set [1] has as its system non-malignant Caco-2 cells. Briefly: MTS cell viability assay, Caco-2. In kind it is cell-based, human. As for the experimental part:
FIG. 13. Inhibition of cell viability by BKAc-Puro is presented in dose-response curve format for the same cell lines as in FIG. 8. The cell lines were treated with DMSO or the indicated doses of agent (4.22, 8.44, 16.9, 33.8, 67.5, or 135 μM) for 5 d followed by MTS assay. Data represent mean values of triplicate measurements±s.d. (n=3). IC50 values were fit by logistic regression.
FIG. 14. Inhibition of cell viability by parental Puro. The cell lines were treated with the indicated doses of Puro (0, 1.1, 2.1, 4.2, or 8.4 μM) for 3 d followed by MTS assay. Data represent mean values of triplicate measurements±s.d.
Cell number was determined by cell counting using improved Neubauer hemacytometer. Cell viability was calculated as the number of viable cells divided by the total number of cells using Trypan Blue Stain (Invitrogen) to distinguish non-viable cells. Data were obtained from duplicated samples with quadruplicate measurements. MTS based cell viability assay was performed using CellTiter 96 Aqueous Cell Proliferation Assay (Promega) according to the manufacturer's instruction. Either 1 μl of DMSO alone or variable concentrations of BKAc-Puro or Puro in DMSO were added to the cell lines seeded at 5×10^4 cells per well in 96-well tissue culture plates in 100 μl of the growth medium, followed by 3-5 d incubation at 37° C. with 5% CO2 atmosphere. Then 20 μl of the MTS reagent was added to each well. After additional 2-3 h incubation, the absorbance of the formazan at 490 nm was measured by the microplate reader. Percent cell viability was expressed relative to the wells containing cells treated with DMSO alone. Data were obtained from triplicate measurements. […] Determination of non-viable cells using PI staining was performed by adding 1 μg/ml of PI solution (Sigma) to the cell culture, prior to the examination under fluorescence microscopy (Axiovert 3, Carl Zeiss) through a×32 objective equipped with a digital imaging processor (Infinity 3, Lumenera).

Another data set concerns ARH-77 cells. Briefly: Live single cell imaging by fluorescence microscopy, cell surface Puro. The settings on record: 20 μg/ml, 16 hr, anti-puro antibody (12D10) Alexa 647, fluorescence microscopy. In kind it is cell-based. As for the experimental part:
Cell surface detection of Puro by anti-puro antibody (12D10) conjugated to Alexa 647 (EMD Millipore). ARH-77 cells were treated with Puro (0.25 μg/ml) or Boc-KAc-Puro (20 μg/ml) for 16 hr then harvested by centrifugation followed by two times wash using cold washing solution (0.1% BSA in PBS). Cells were resuspended in the same solution and incubated 30 min on ice with Alexa 647 conjugated mouse IgG2a anti-puromycin antibody (12D10). Cells were washed twice with the solution followed by fluorescence microscope analysis. The specificity of the antibody was confirmed by using isotype control antibody (mouse IgG2a conjugated with Alexa 647).

What is called IC50 is the midpoint of a concentration-inhibition curve. High values mean lower potency, low ones higher potency.

`COc1ccc(CC(NC(=O)C(CCCCNC(C)=O)NC(=O)OC(C)(C)C)C(=O)NC2C(O)[C@H](n3cnc4c(N(C)C)ncnc43)O[C@@H]2CO)cc1` (stereo partly drawn) [BKAc-Puro, N-[3′-(α-Amino-p-methoxyhydrocinnamamido)-3′-deoxy-N,N-dimethyldenosinyl)-N-α-(t-butoxycarbonyl]-N-ε-acetyl-L-lysineamide]: in data set [1] (135 μM BKAc-Puro vs parental Puro), the “Highest inactive dose relative to dose of parental Puro effective to Caco-2 cells” value is listed as “more than 30 times”. In data set [1] (Homo sapiens, Caco-2, 120 h, MTS, 5 d, sufficient inhibition not achieved with doses up to 135 μM), this molecule returned an IC50 greater than 135 µM. Further, the “Puro presentation on cell surface proteins” value with ARH-77 cells is “confirmed”.
